In patent US10342818B2, “Dual-action compounds targeting adenosine A2A receptor and adenosine transporter for prevention and treatment of neurodegenerative diseases” (Academia Sinica, priority 2009, dated 2019):
Entries after “also recorded” stand apart in the source; their conditions may differ. Where two headings read alike, the source gives them in different places.

Experiments:
[1] = target: T1, equilibrative nucleoside transporter 1 (ENT1) (Cavia porcellus, UniProt H0V4R7); assay: Radioligand binding assay for adenosine transporters (3H-NBTI, cerebral cortex membranes); parameters: species or system guinea pig; details: for Ki: guinea pig equilibrium transporter 1, cerebral cortex membranes, 3H-NBTI 0.5 nM; for Binding with / activity against ENT1, result in words: radioligand binding
T1 construct: Membrane fractions collected from the cerebral cortex of Duncan Hartley derived guinea pigs; tissue MDS Pharma Services Taiwan (assay provider); host or cells: guinea pig cerebral cortex membranes
T1 sequence (H0V4R7 1-461): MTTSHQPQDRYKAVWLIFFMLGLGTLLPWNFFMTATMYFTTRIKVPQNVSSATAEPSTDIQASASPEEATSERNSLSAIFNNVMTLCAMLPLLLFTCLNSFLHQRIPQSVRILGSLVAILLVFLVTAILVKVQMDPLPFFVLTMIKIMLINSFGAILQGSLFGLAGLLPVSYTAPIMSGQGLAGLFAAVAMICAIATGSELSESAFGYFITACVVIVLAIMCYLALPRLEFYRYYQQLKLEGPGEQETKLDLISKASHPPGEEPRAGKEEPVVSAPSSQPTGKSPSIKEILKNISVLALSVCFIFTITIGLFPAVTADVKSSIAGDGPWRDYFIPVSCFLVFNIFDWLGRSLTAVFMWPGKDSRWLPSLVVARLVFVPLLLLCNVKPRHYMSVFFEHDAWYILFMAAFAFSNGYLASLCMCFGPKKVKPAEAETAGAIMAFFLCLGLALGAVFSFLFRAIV
Excerpt: The pharmacological properties of the prepared adenosine analogues were characterized by MDS Pharma Services using radioligand binding assays. […] Except for 11 and 15, the adenosine derivatives having modification at the C-5′ position appeared to deteriorate their binding with A2AR, though they still maintained high affinity with ENT1.

human A2A receptor = human A2A receptor (Homo sapiens, UniProt P29274); assay: Radioligand binding assay of the A2A receptor (3H-CGS21680, MDS Pharma Services); details: for Binding with A2AR, result in words: radioligand binding
Sequence of human A2A receptor (P29274 whole entry): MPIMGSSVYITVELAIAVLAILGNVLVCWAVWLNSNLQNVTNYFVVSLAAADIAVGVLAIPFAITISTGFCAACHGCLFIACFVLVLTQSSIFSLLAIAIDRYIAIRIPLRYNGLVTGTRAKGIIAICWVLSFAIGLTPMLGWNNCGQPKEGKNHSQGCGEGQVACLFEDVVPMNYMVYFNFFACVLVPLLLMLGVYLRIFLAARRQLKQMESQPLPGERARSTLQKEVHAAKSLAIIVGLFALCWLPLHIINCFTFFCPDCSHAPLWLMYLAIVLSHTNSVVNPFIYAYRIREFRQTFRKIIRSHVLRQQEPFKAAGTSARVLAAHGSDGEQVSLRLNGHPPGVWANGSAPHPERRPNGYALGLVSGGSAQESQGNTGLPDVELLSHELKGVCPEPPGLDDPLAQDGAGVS
Description: Radioligand binding assays were performed by MDS Pharma Services Taiwan (Taipei, Taiwan) using standard binding protocols. For the binding assay of the A2A receptor,^46 membrane proteins collected from HEK293 cells overexpressing the human A2A receptor were incubated in reaction buffer [50 mM Tris-HCl (pH 7.4), 10 mM MgCl2, 1 mM EDTA, and 2 U/mL adenosine deaminase] containing ^3H-CGS21680 (50 nM) for 90 min at 25° C. Nonspecific binding was assessed in the presence of 50 μM adenosine-5′-N-ethylcarboxamide (NECA).

PC12 cells [2] = assay: MTT metabolism assay, rescue of serum-deprived PC12 cells from apoptosis; format: cell-based; details: 0.01 μM, 24 h
Excerpt: Cell viability was monitored by the MTT assay, and is expressed as a percentage of the MTT activity measured in the serum-containing group. […] Collectively, the dual function of these compounds in activation of adenosine receptor and in inhibition of adenosine transporter might synergistically increase the effective concentration of adenosine, especially when these two proteins are in proximity.
PC12 cells purchased from ATCC (Manassas, Va., USA) were maintained in Dulbecco's modified Eagle's medium (DMEM) supplemented with 10% horse serum and 5% fetal bovine serum and incubated in a CO2 incubator (5%) at 37° C. Survival was assessed by the 3-(4,5-dimethylthiazol-2-yl)-2,5-diphenyltetrazolium bromide (MTT) metabolism assay as described elsewhere.^49,50 In brief, cells grown on 150-mm plates were washed three times with PBS and resuspended in DMEM. Suspended cells (1×10^4 cells) were plated on 96-well plates and treated with or without the indicated reagent. After incubation for 24 h, MTT (0.5 mg/mL) was added to the medium and incubated for 3 h. After discarding the medium, DMSO (100 μL) was then applied to the well to dissolve the formazan crystals derived from the mitochondrial cleavage of the tetrazolium ring by live cells. The absorbance at 570/630 nm in each well was measured on a micro-enzyme-linked immunosorbent assay (ELISA) reader.

PC12 cells [3] = details: compound isolated from Gastrodia elata, earlier report; cited from earlier work

Row | Compound | Ki [1] [µM] | Ki (human A2A receptor) [µM] | other results
1 | CCCCc1cn(C[C@H]2O[C@@H](n3cnc4c(NCc5ccc(OC)cc5)ncnc43)[C@H](O)[C@@H]2O)nn1 [Compound 12] | 0.511 | > 100 | 
2 | CCNC(=O)C1OC(n2cnc3c(NCc4ccc(O)cc4)ncnc32)C(O)C1O (centres unmarked) [Compound 15, 3,4-Dihydroxy-5-[6-(4-hydroxybenzylamino)-purin-9-yl]-tetrahydrofuran-2-carboxylic Acid Ethylamide] | > 10 | 20.3 | melting point: 179.7 to 180.5 °C
3 | COc1ccc(CNc2ncnc3c2ncn3C2OC(c3nnn[nH]3)C(O)C2O)cc1 (centres unmarked) [Compound 16, 2-[6-(4-Methoxybenzylamino)-purin-9-yl]-5-(1H-tetrazol-5-yl)-tetrahydrofuran-3,4-diol] | 1.17 | > 100 | melting point: 210 to 210.6 °C
4 | COc1ccc(CNc2ncnc3c2ncn3[C@@H]2O[C@H](CNC(C)=O)[C@@H](O)[C@H]2O)cc1 [Compound 9, 5′-Acetamido-5′-deoxy-N^6-(4-methoxybenzyl)adenosine] | 1.43 | > 100 | melting point: 121.1 to 121.6 °C
5 | COc1ccc(CNc2ncnc3c2ncn3[C@@H]2O[C@H](Cn3cc(C)nn3)[C@@H](O)[C@H]2O)cc1 [Compound 11, 5′-Deoxy-5′-(4-methyl-1,2,3-triazol-1-yl)-N^6-(4-methoxybenzyl)adenosine] | 0.96 | 41.8 | melting point: 183 to 183.2 °C
6 | OC[C@H]1O[C@@H](n2cnc3c(NCCc4c[nH]c5ccccc45)ncnc32)[C@H](O)[C@@H]1O [Compound 6, N^6-(3-Indolylethyl)adenosine] |  |  | Binding with / activity against ENT1, result in words [1]: sub-micromolar range; Rescue of PC12 cells from apoptosis evoked by serum withdrawal (cell viability, MTT) (PC12 cells [2]): rescued PC12 cells from the apoptosis evoked by serum withdrawal equally as well as 1; Binding with A2AR, result in words (human A2A receptor): low micromolar; Binding affinity to A2AR of compound 6 relative to compound 11 (human A2A receptor; ratio of Ki values): 10 fold
7 | CCCCCCc1cn(C[C@H]2O[C@@H](n3cnc4c(NCc5ccc(OC)cc5)ncnc43)[C@H](O)[C@@H]2O)nn1 [Compound 13] | 0.052 | > 100 | 
8 | CCNC(=O)C1OC(n2cnc3c(N)nc(NCCc4ccc(CCC(=O)O)cc4)nc32)C(O)C1O (centres unmarked) [CGS, 6-amino-9-(5-ethylcarbamoyl-3,4-dihydroxy-oxolan-2-yl)-2-{2-[4-(2-carboxyethyl)phenyl]ethylamino}purine, reference compound] |  |  | Binding with / activity against ENT1, result in words [1]: lack the activity against ENT1; also recorded: no inhibitory activity toward hENT1

Further lines, with some results ahead:

Row | Ki [1] [µM] | Ki (human A2A receptor) [µM] | Compound | other results
9 | 0.2 | > 100 | COc1ccc(CNc2ncnc3c2ncn3[C@@H]2O[C@H](CNS(=O)(=O)c3ccc(C)cc3)[C@@H](O)[C@H]2O)cc1 [Compound 10] | 
10 | 0.538 |  | OC[C@H]1O[C@@H](n2cnc3c(NCc4ccc(O)cc4)ncnc32)[C@H](O)[C@@H]1O [Compound 1, N^6-(4-Hydroxybenzyl)adenosine] | Binding with / activity against ENT1, result in words [1]: sub-micromolar range; Rescue of PC12 cells from apoptosis evoked by serum withdrawal (cell viability, MTT) (PC12 cells [2]): rescued PC12 cells from the apoptosis evoked by serum withdrawal; Prevention of apoptosis of serum-deprived PC12 cells (previously reported) (PC12 cells [3]): prevented apoptosis of serum-deprived PC12 cells; Binding with A2AR, result in words (human A2A receptor): low micromolar; Ki (human A2A receptor; read-out: Ki A2A-R, human adenosine A2A receptor, HEK293 membranes, 3H-CGS21680 50 nM): 2.62 µM
11 | 0.00029 | > 10 | O=[N+]([O-])c1ccc(CSc2ncnc3c2ncn3[C@@H]2O[C@H](CO)[C@@H](O)[C@H]2O)cc1 [NBTI, S-(4-nitrobenzyl)-6-thioinosine, reference compound] | Binding with A2AR, result in words (human A2A receptor): no binding ability with A2AR
12 | 0.116 | > 100 | COc1ccc(CNc2ncnc3c2ncn3[C@@H]2O[C@H](Cn3cc(Cc4ccccc4)nn3)[C@@H](O)[C@H]2O)cc1 [Compound 14] | 
13 | 0.318 | 30.1 | COc1ccc(CNc2ncnc3c2ncn3[C@@H]2O[C@H](CO)[C@@H](O)[C@H]2O)cc1 [Compound 3, N^6-(4-methoxybenzyl)adenosine] | 
14 | 2.98 | > 100 | COc1ccc(CNc2ncnc3c2ncn3[C@@H]2O[C@H](CCl)[C@@H](O)[C@H]2O)cc1 [Compound 7] | 
15 | 0.581 |  | COc1ccc(CNc2ncnc3c2ncn3[C@@H]2O[C@H](CN=[N+]=[N-])[C@H](O)C2O)cc1 (some centres unmarked) [Compound 8] | 
16 | > 100 | > 100 | CC1(C)O[C@@H]2[C@H](O1)[C@@H](CO)O[C@H]2n1cnc2c(NCc3ccc(O)cc3)ncnc21 [Compound 1-acetonide, 1-acetonide] | 
